In ChEMBL document CHEMBL5233287, “In Vitro Hypoglycemic Diterpenoids from the Roots of Croton yunnanensis” (J Nat Prod, 2023):
Active and inactive are the calls of the source. The rule behind the calls is not given here.

How the values were obtained:
[1] = test system: 3T3-L1; assay: Hypoglycemic activity in insulin-resistant mouse 3T3-L1 cells assessed as increase in 2-deoxyglucose uptake treated with compound for 10 mins followed by 2-deoxyglucose challenge for 30 mins by liquid scintillation counting analysis; type: functional, cell-based; settings: time 40.0 min
[2] = test system: 3T3-L1; assay: Insulin sensitizing activity in mouse 3T3-L1 cells assessed as increase in 2-deoxyglucose uptake at 5 to 20 uM treated with compound and insulin for 10 mins followed by 2-deoxyglucose challenge for 30 mins by liquid scintillation counting analysis; type: functional, cell-based; settings: dose 5-20 µM, time 40.0 min

Compound	Activity [1]	Activity [2]
COC(=O)[C@H]1C=CC[C@H]2[C@@]13CC[C@@H](C)[C@]21C[C@@H](C2=CC(=O)O[C@H]2OC)O[C@@H]1O3	Active	
COC(=O)C1=CCC[C@@H]2[C@]34C[C@@H](C5=C[C@@H](OC)OC5=O)O[C@@H]3O[C@]12CC[C@H]4C	Active	
COC(=O)C1=CCC[C@H]2[C@@]13CC[C@@H](C)[C@]21C[C@@H](C2=C[C@@H](OC)OC2=O)O[C@@H]1OC3=O	Active	
COC(=O)C1=CCC[C@@H]2[C@]34C[C@@H](C5=CC(=O)O[C@H]5OC)O[C@@H]3O[C@]12CC[C@H]4C	Active	Active
COC(=O)C1=CCC[C@@H]2[C@]34C[C@@H](c5ccoc5)O[C@@H]3O[C@]12CC[C@H]4C	Active	
C=C1CC[C@]23[C@@H](OC(=O)c4ccccc4)O[C@H]4O[C@H](c5ccoc5)C[C@]14[C@H]2CCC(=O)[C@@]3(O)C(=O)OC	Active	Active
COC(=O)C1=CCC[C@H]2[C@@]13CC[C@@H](C)[C@]21C[C@@H](C2=CC(=O)O[C@H]2OC)O[C@@H]1O[C@@H]3OC	Active	
